Laboratory results published in US20220251096A1, “7,8-DIHYDRO-4H-PYRAZOLO[4,3-c]AZEPINE-6-ONE COMPOUNDS” (Eli Lilly and Company, priority 2019, published 2022).
Blank lines part the entries; values can stand above or below the compound they belong to.

Columns and labels:
[1] = system: 22Rv1 prostate cancer cells; experiment: Cell proliferation assay in 22Rv1; type: cell-based; settings: Homo sapiens, 22Rv1, 168 h, 22Rv1, 7 days; for inhibition at 0.37 µM: single agent at 370 nM
Experimental: The purpose of the following cell proliferation assay is to detect whether the compound of Example 2 and combinations thereof have an effect on cell proliferation.
22Rv1 (purchased from ATCC CRL-2505) cells are seeded at a density of 1,000 cells per well in RMPI 10% FBS (20 μL volume) into a clear bottom 384-well cell culture plate. The plate is incubated at 37° C. and 5% CO2. The cells are dosed the following day with the compound of Example 2 and the compound of Example 2 in combination with the known anti-cancer therapeutics found in the table below. An Echo 555 acoustic dispenser is used to prepare serial dilutions (1:3) of the compound of Example 2, and combinations thereof, in concentrations ranging from 60 μM to 0.003 μM. The cells are then dosed by addition of 5 μL from the serial dilution plate to the cell plate, producing a final DMSO concentration of 0.2% with a final concentration dose ranging from 20 μM to 0.001 μM for the compound of Example 2 and combinations thereof.
Media containing 0.2% DMSO is used for the maximum point and 2 μM staurosporine in the growth media containing 0.2% DMSO is used for the minimum point. After dosing with the compound of Example 2 and combinations thereof, the cell plates are incubated at 37° C. and 5% CO2. Seven days after test compound addition, plates are removed from the incubator and cold EtOH (96%, 65 μL) is added to each well. After 30 minutes, the media is removed and RNase (20 μL, 50 μg/mL) (Sigma) and a 1:1000 propidium iodide dilution in PBS are added to each well. The plates are sealed and incubated for 1 hour at room temperature and preserved from light. Plates are then scanned with ACUMEN EXPLORER™ [Laser-scanning fluorescence microplate cytometer manufactured by TTP LABTECH LTD]. The number of 22Rv1 cells is evaluated through an estimated number of cells, calculated through the area parameter (ratio of total area of the total cells population), a designated range of peak intensity of FL-3 (PI), and the mean area of the single cell population defined by perimeter. Data is then processed through an NGR screening tool. Data is analyzed using a 4-parameter nonlinear logistic equation (four-parameter logistic concentration-response curve): Y=bot+[(top−bot)/1+(x/IC50)slope] where Y=% inhibition, X=concentration yielding y % inhibition, “bot”=minimum value of y attained by curve, “top”=maximum value of y attained by curve, and “slope”=steepness of curve at IC50. % Inh=[(median Max−x/median Max−median Min)]·100.

hBRD4 = target: T1, hBRD4 (Homo sapiens, UniProt O60885); experiment: NanoBRET assay, BRD4 full length; type: cell-based; settings: NanoBRET in HEK293 cells, read after overnight incubation; mean ± Standard Deviation
T1 construct: NanLuc-BRD4 Full Length (Promega, 0.0002 μg); host or cells: HEK293
Experimental: (§1) HEK293 cells are seeded at 10×10^6 cells/16 mL in DMEM+10% FBS in a T-75 flask and left to attach for 4-6 hours. Transfection reagents are diluted in Opti-MEM media (no phenol red, no FBS) and 8% Fugene HD containing expression plasmids at a final concentration of the following: 1: Histone H3.3 HaloTag DNA (Promega, 0.02 μg)+NanoLuc-CREBBP-BD (Promega, 0.0002 μg); 2: Histone H3.3 HaloTag DNA (Promega, 0.02 μg)+NanoLuc-EP300-BD (Promega, 0.0002 μg); 3: Histone H4 HaloTag DNA (0.02 μg)+NanLuc-BRD4 Full Length (Promega, 0.0002 μg). The DNA/Fugene mixtures are left at RT for 10 minutes. Transfection mix (800 μL) is added per flask and immediately swirled to cover the cells. The plates are returned to the incubator for overnight transfection. The next day, HaloTag NanoBRET 618 ligand (20 μL/vial of 0.1 mM) is thawed at RT. […]
(§2) Compound is serially diluted and added to 96-well plates (2 10 mM, 3-fold dilutions, 100% DMSO). […] CREBBP/EP300 plates are read after 4 hours incubation and the BRD4 plates are read after overnight incubation. To develop plates for reading, allow all reagents to reach RT before use. […] The plate is shaken for 1 minute to mix and within 10 minutes, read on Envision plate reader with the following settings: Mirror: Luminescence; Emission filter: E600LP; 2nd emission filter: D460/50; Measurement height (mm): 6.5; Measurement time (s): 0.2 second.

SW780 = experiment: Cell growth inhibition assay, SW780; type: cell-based; settings: Homo sapiens, 168 h; SW780, 7 days
Experimental: (§3) Tumor cell lines are plated onto 96-well, black wall poly-D-lysine plates (Corning #354640), and incubated at 37° C., 5% CO2 for 18-24 hours. Compound was added at 1:3 dilutions in DMSO and cells were incubated at 37° C., 5% CO2 for 7 days. For adherent cell lines, cells were fixed and stained with propidium iodide and scanned on Acumen (channel 3 setting). For suspension cell lines, cell growth was monitored using Cell Titer-Glo reagent.

NCI-H1048 = experiment: Cell growth inhibition assay, NCI-H1048; type: cell-based; settings: Homo sapiens, 168 h; NCI-H1048, 7 days
Experimental: as §3

NCI-H211 = experiment: Cell growth inhibition assay, NCI-H211; type: cell-based; settings: Homo sapiens, 168 h; NCI-H211, 7 days
Experimental: as §3

EOL-1 = experiment: Cell growth inhibition assay, EOL-1; type: cell-based; settings: Homo sapiens, EOL1, 168 h; EOL-1, 7 days
Experimental: as §3

MDA-MIB-453 = experiment: Cell growth inhibition assay, MDA-MIB-453; type: cell-based; settings: 168 h; MDA-MIB-453, 7 days
Experimental: as §3

KG-1a = experiment: Cell growth inhibition assay, KG-1a; type: cell-based; settings: Homo sapiens, 168 h, 7 days
Experimental: as §3

BRD4 (BD1) = target: T2, BRD4 (BD1) (Homo sapiens, UniProt O60885); experiment: BromoKdELECT platform assay, BRD4 (BD1); type: binding; settings: 11 points dose-response, mean from a duplicate experiment
T2 construct: BRD4 (Bromodomain 1 (BD1) and Bromodomain 2 (BD2)); purchased DiscoverX (BromoKdELECT service)
From the text: (§4) The purpose of this assay is to evaluate the in vitro target engagement and selectivity (https://www.discoverx.com/services/drug-discovery-development-services/epigenetic-profiling/bromoscan-epigenetic-profiling/bromokdelect). Assay measurement is based on the amount of bromodomain captured in test and control samples by using quantitative PCR technology that detects the DNA label associated to bromodomain. Compounds that bind the bromodomain active site prevents its binding to the immobilized ligand and will reduce the amount of bromodomain captured on the solid support. […] Thus, compound activity is monitored by measuring the amount of bromodomain captured in test versus control samples by using qPCR. Binding affinity for test compound-bromodomain interactions are calculated by measuring the amount of bromodomain captured on the solid support as a function of the test compound concentration.
(§5) Binding affinity (Kd) of the compounds of Examples 1 and 2 towards CREBBP, EP300 and BRD4 (Bromodomain 1 (BD1) and Bromodomain 2 (BD2)) are determined in an 11 points dose-response study (See Table 5). Data is represented as a mean from a duplicate experiment.

BRD4 (BD1, BD2) = target: T3, BRD4 (BD1, BD2) (Homo sapiens, UniProt O60885); experiment: BromoKdELECT platform assay, BRD4 (BD1, BD2); type: binding; settings: 11 points dose-response, mean from a duplicate experiment
T3 construct: BRD4 (Bromodomain 1 (BD1) and Bromodomain 2 (BD2)); purchased DiscoverX (BromoKdELECT service)
From the text: as §4, §5

BRD4 (BD2) = target: T4, BRD4 (BD2) (Homo sapiens, UniProt O60885); experiment: BromoKdELECT platform assay, BRD4 (BD2); type: binding; settings: 11 points dose-response, mean from a duplicate experiment
T4 construct: BRD4 (Bromodomain 1 (BD1) and Bromodomain 2 (BD2)); purchased DiscoverX (BromoKdELECT service)
From the text: as §4, §5

EP300 [2] = target: T5, EP300 (Homo sapiens, UniProt Q09472); experiment: BromoKdELECT platform assay, EP300; type: binding; design: purchased DiscoverX (BromoKdELECT service); settings: 11 points dose-response, mean from a duplicate experiment
T5 sequence (Q09472 1049-1156 limits assumed): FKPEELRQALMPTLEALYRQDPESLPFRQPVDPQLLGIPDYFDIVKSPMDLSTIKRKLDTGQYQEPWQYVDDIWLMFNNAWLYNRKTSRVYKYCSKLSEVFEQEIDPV
From the text: as §4, §5

CREBBP [3] = target: T6, CREBBP (Homo sapiens, UniProt Q92793); experiment: BromoKdELECT platform assay, CREBBP; type: binding; design: purchased DiscoverX (BromoKdELECT service); settings: 11 points dose-response, mean from a duplicate experiment
T6 sequence (Q92793 1085-1192 limits assumed): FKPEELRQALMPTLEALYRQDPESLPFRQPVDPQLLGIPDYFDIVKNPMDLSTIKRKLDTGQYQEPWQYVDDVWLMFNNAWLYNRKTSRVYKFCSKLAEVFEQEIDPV
From the text: as §4, §5

EP300 [4] = target: T5, EP300; experiment: NanoBRET assay, EP300 bromodomain; type: cell-based; design: NanoLuc-EP300-BD (Promega, 0.0002 μg); host or cells: HEK293; settings: NanoBRET in HEK293 cells, read after 4 hours incubation; mean ± Standard Deviation
Experimental: as §1, §2

CREBBP [5] = target: T6, CREBBP; experiment: NanoBRET assay, CREBBP bromodomain; type: cell-based; design: NanoLuc-CREBBP-BD (Promega, 0.0002 μg); host or cells: HEK293; settings: NanoBRET in HEK293 cells, read after 4 hours incubation; mean ± Standard Deviation
Experimental: as §1, §2

Compound: CCN1CCN(Cc2ccc(Nc3ncc(F)c(-c4cc(F)c5nc(C)n(C(C)C)c5c4)n3)nc2)CC1 [Abemaciclib, abemaciclib, reference compound]
inhibition at 0.012 µM ([1]; single agent at 12 nM): 34.3% | inhibition at 0.037 µM ([1]; single agent at 37 nM): 62.4%

Compound: Cc1nc(NC(=O)N2CCC[C@H]2C(N)=O)sc1-c1ccnc(C(C)(C)C(F)(F)F)c1 [Alpelisib, alpelisib, reference compound]
inhibition at 0.12 µM ([1]; single agent at 120 nM): 33.1% | inhibition at 0.37 µM [1]: 45.3%

Compound: CC(O)c1cc(C(=O)N[C@@H](C)Cn2ccc(-c3ccc(C#N)c(Cl)c3)n2)[nH]n1 (stereo partly shown) [Darolutamide, darolutamide, reference compound]
inhibition at 0.74 µM ([1]; single agent at 740 nM): 6.69% | inhibition at 2.2 µM ([1]; single agent at 2.2 μM): 6.18%

Compound: CNC(=O)c1ccc(N2C(=S)N(c3ccc(C#N)c(C(F)(F)F)c3)C(=O)C2(C)C)cc1F [Enzalutamide, enzalutamide, reference compound]
inhibition at 0.37 µM [1]: -0.12% | inhibition at 3.3 µM ([1]; single agent at 3.3 μM): 0.41%

IC50 (hBRD4): 5.57 ± 4.1 µM | IC50 (SW780): 0.001 µM | IC50 (NCI-H1048): 0.01 µM | IC50 (NCI-H211): 0.036 µM | Kd (BRD4 (BD1)): 2 µM | Kd (BRD4 (BD1, BD2)): 4.4 µM | Kd (BRD4 (BD2)): 6.7 µM | Kd (EP300 [2]): 0.00016 µM | Kd (CREBBP [3]): 0.0011 µM | IC50 (EP300 [4]): 0.0151 ± 0.00275 µM | IC50 (CREBBP [5]): 0.016 ± 0.00664 µM
Compound: CNC(=O)c1ccc(-c2cc3cccc(-c4nn(C)c5c4CN(C)C(=O)CC5)c3cn2)cn1 [Example 1, 5-[8-(1,5-Dimethyl-6-oxo-7,8-dihydro-4H-pyrazolo[4,3-c]azepin-3-yl)-3-isoquinolyl]-N-methyl-pyridine-2-carboxamide]
IC50 (EOL-1): 0.0008 µM | IC50 (MDA-MIB-453): 0.028 µM | IC50 (KG-1a): 0.037 µM
